This experiment relates to Klebsiella pneumoniae. Description: Antibiotic adjuvant activity against meropenem-treated NDM-producing carbapenem resistant Klebsiella pneumoniae infected in BALB/c mouse sepsis model assessed as survival rate at 10 mg/kg, ip in the presence of meropenem measured after 7 days. The format is functional. The following applies: 168 h, time 7 day.

Molecules are shown by their SMILES.

For the molecule `C[C@H](C(=O)O)N(Cc1cccc(C(=O)O)n1)Cc1cccc(C(=O)O)n1`, the survival at 10 mg/kg was 100%.

The record behind these values is ChEMBL document CHEMBL4828719, “H2dpa derivatives containing pentadentate ligands: An acyclic adjuvant potentiates meropenem activity in vitro and in vivo against metallo-β-lactamase-producing Enterobacterales” (Eur J Med Chem, 2021).
